Measured values published in US20180105546A1, “Methods for Chemical Synthesis of Biologically Active Compounds Using Supramolecular Protective Groups and Novel Compounds Obtainable Thereby” (Rijksuniversiteit Groningen, priority 2011, published 2018).
Entries after “also recorded” stand apart in the source; their conditions may differ.

How the values were obtained:
E. coli ATCC 25922 [1] = assay: Kirby-Bauer disk test (zone of inhibition); format: cell-based; conditions: amount 17.5 nmol per disk, HFBA salts except 1* (sulphate)
Method: Antibiotic disks preparation. Paper disks (6 mm diameter, BBL Microbiology Systems) were wetted through with 20, 25, 30 and 35 μL of a solution containing the antibiotic sample at a concentration of 0.5 nmol/μL. The wet disks were dried in a desiccator overnight, and used the next day.
Culture preparation. A colony picked from a freshly made plate of the bacteria strain E. coli ATCC 25922 was used to inoculate 20 mL of Mueller-Hinton broth and the obtained culture was grown overnight at 37° C. and 250 RPM shaking.
Kirby-Bauer test procedure. A new culture was made adding 1 mL of overnight culture in 99 mL of fresh Mueller-Hinton broth. The culture was grown at 37° C. and 250 RPM shaking until it reached an OD600 of 0.132 (0.5 McFarland) and a series of Mueller-Ilinton-Agar plates preheated at 37° C. were inoculated spreading 200 μL of that culture with sterile cotton. The plates were then dried for 30 minutes. Then on each plate 3 or 4 antibiotic paper disks were placed. The plates were incubated overnight at 37° C. and subsequently the diameter of the inhibition growth zone was measured.

E. coli ATCC 25922 [2] = assay: Minimum Inhibitory Concentration (MIC) test; format: cell-based; conditions: for MIC: E. coli ATCC 25922, Mueller-Hinton broth, overnight 37° C., HFBA salts except 1* (sulphate); for antimicrobial activity against E. coli ATCC 25922 (in words): Kirby-Bauer Disk Test and MIC, summary statement
Method: All test solutions contained 40 nmol of antibiotic. After drying, the samples were resuspended in 100 μL of Mueller-Hinton broth. Each solution of antibiotic in broth media was pipetted in the first lane of a 96 well plate (volume of well 500 μL). The remaining lanes were filled with 50 μL of E. coli ATCC 25922 culture with an OD600 of 0.264. Series of 2-fold dilution were made removing from the first lane 50 μL of the antibiotic solution and resuspending it with the culture contained in the next well. At the end, all wells were filled with 100 μL of E. coli ATCC 25922 culture in Mueller-Hinton with an OD600 of 0.132 (0.5 McFarland) and the appropriate amount of antibiotic. The 96-well plates were incubated overnight at 37° C. and 350 RPM shaking.

Row | Molecule | Diameter (zones of inhibition as determined by Kirby-Bauer disk method) (E. coli ATCC 25922 [1]) | MIC (E. coli ATCC 25922 [2]; Escherichia coli, ATCC25922) | antimicrobial activity against E. coli ATCC 25922 (in words) (E. coli ATCC 25922 [2]) | MIC (E. coli ATCC 25922 [2])
1 | CC(C)C(=O)NCC1O[C@H](OC2C(O)[C@H](OC3C(O)[C@H](N)CC(N)[C@H]3O[C@H]3OC(CN)[C@@H](O)C(O)C3N)O[C@@H]2CO)C(N)C(O)[C@@H]1O (some centres unmarked) [compound 6] | 11.5 mm | 12.5 µM | still highly active; also recorded: same biological activity as paromomycin 2 | 
2 | NC[C@@H]1O[C@H](O[C@H]2[C@@H](O)[C@H](O[C@@H]3[C@@H](O)[C@H](N)C[C@H](N)[C@H]3O[C@H]3O[C@H](CO)[C@@H](O)[C@H](O)[C@H]3N)O[C@@H]2CO)[C@H](N)[C@@H](O)[C@@H]1O [2^, paromomycin, reference compound] | 13.2 mm | 12.5 µM |  | 
3 | CC(=O)NCC1O[C@H](OC2C(O)[C@H](OC3C(O)[C@H](N)CC(N)[C@H]3O[C@H]3OC(CN)[C@@H](O)C(O)C3N)O[C@@H]2CO)C(N)C(O)[C@@H]1O (some centres unmarked) [5a, N^6(VI)-acetyl neomycin B] | 13.9 mm | 6.3 µM | still highly active | 
4 | neomycin B [compound 1, reference compound] |  |  |  | 3.1 µM
5 | NCC1OC(OC2C(CO)OC(OC3C(O)C(N)CC(N)C3OC3OC(CN)C(O)C(O)C3N)C2O)C(N)C(O)C1O.O=C(O)C(F)(F)C(F)(F)C(F)(F)F.O=C(O)C(F)(F)C(F)(F)C(F)(F)F.O=C(O)C(F)(F)C(F)(F)C(F)(F)F.O=C(O)C(F)(F)C(F)(F)C(F)(F)F.O=C(O)C(F)(F)C(F)(F)C(F)(F)F.O=C(O)C(F)(F)C(F)(F)C(F)(F)F (centres unmarked) [1^, neomycin B×6 HFBA, reference compound] | 16.1 mm |  |  | 3.1 µM
